The values that follow come from US9050346B2, “Bromodomain inhibitors” (AbbVie Inc., priority 2013, dated 2015).

One experiment has as its target T1, BRD4 (BDI_K57-E168) (Homo sapiens, UniProt O60885).
T1 construct: BD1: amino acids K57-E168; made in house
Put plainly: TR-FRET bromodomain binding assay, BRD4 first bromodomain. The conditions noted are these: His-tagged BD1, 100 nM Alexa647 probe; Ki calculated from IC50; dilution protocol A-G. How it is done:
(§1) A time-resolved fluorescence resonance energy transfer (TR-FRET) assay was used to determine the affinities of compounds of the Examples listed in Table 1 for each bromodomain of BRD4. His-tagged first (BD1: amino acids K57-E168) and second (BD2: amino acids E352-E168) bromodomains of BRD4 were expressed and purified. An Alexa647-labeled BET-inhibitor was used as the fluorescent probe in the assay.
(§2) Compound dilution series were prepared in DMSO via an approximately 3-fold serial dilution from one of the following: • Assay method A: 2.5 mM-800 nM • Assay method B: 2.5 mM-797 nM • Assay method C: 1250 μM-21 nM • Assay method D: 500 μM-8.5 nM • Assay method E: 0.47 mM to 7.8 nM • Assay method F: 250 μM-4.2 nM • Assay method G: 0.047 mM to 0.78 nM or 5-fold serial dilution from Assay Method A or Assay Method B.
(§3) For Assay methods A, C, D, and F: Compounds were then diluted 6:100 in assay buffer (20 mM Sodium Phosphate, pH 6.0, 50 mM NaCl, 1 mM Ethylenediaminetetraacetic acid, 0.01% Triton X-100, 1 mM DL-Dithiothreitol) to yield 3× working solutions. Six microliters (μL) of the working solution was then transferred to white, low-volume assay plates (Costar #3673). A 1.5× assay mixture containing His-tagged bromodomain, Europium-conjugated anti-His antibody (Invitrogen PV5596) and the Alexa-647-conjugated probe molecule was also prepared. Twelve μL of this solution were added to the assay plate to reach a final volume of 18 μL.
(§4) For Assay methods B, E, and G: Compound dilutions were added directly into white, low-volume assay plates (Perkin Elmer Proxiplate 384 Plus#6008280) using a Labcyte Echo in conjunction with Labcyte Access and Thermo Multidrop CombinL robotics. Compounds were then suspended in eight microliters (μL) of assay buffer (20 mM Sodium Phosphate, pH 6.0, 50 mM NaCl, 1 mM Ethylenediaminetetraacetic acid disodium salt dihydrate, 0.01% Triton X-100, 1 mM DL-Dithiothreitol) containing His-tagged bromodomain, Europium-conjugated anti-His antibody (Invitrogen PV5596) and Alexa-647-conjugated probe.
(§5) The final concentration of 1× assay mixture for assay methods A, B, C, D, E, F, and G contains 2% DMSO, 8 nM His-tagged bromodomain, 1 nM Europium-conjugated anti-His-tag antibody and 100 nM or 30 nM probe (for BDI or BDII, respectively) and compound concentration in the range of: 50 μM-16 nM for method A, 49.02 μM-15.63 nM for method B, 25 μM-423 pM for method C, 10 μM-169 pM for method D, 9.19 μM-150 pM for method E, 5 μM-85 pM for method F, and 0.92 μM-15 pM for method G.
(§6) After a one-hour equilibration at room temperature, TR-FRET ratios were determined using an Envision multilabel plate reader (Ex 340, Em 495/520).
(§7) TR-FRET data were normalized to the means of 24 no-compound controls (“high”) and 8 controls containing 1 μM un-labeled probe (“low”). Percent inhibition was plotted as a function of compound concentration and the data were fit with the 4 parameter logistic equation to obtain IC50s Inhibition constants (Ki) were calculated from the IC50s, probe Kd and probe concentration. Typical Z′ values were between 0.65 and 0.75. The minimum significant ratio was determined to evaluate assay reproducibility (Eastwood et al., (2006) J Biomol Screen, 11: 253-261). The MSR was determined to be 2.03 for BDI and 1.93 for BDII, and a moving MSR (last six run MSR overtime) for both BDI and BDII was typically <3.

In another experiment the target is T2, BRD4 (BDII_E352-M457) (Homo sapiens, UniProt O60885).
T2 construct: made in house
Put plainly: TR-FRET bromodomain binding assay, BRD4 second bromodomain. How it is done: as §1, §2, §3, §4, §5, §6, §7
A general note: In TR-FRET formats the signal depends on donor and acceptor labels being close together.

Turning to `Cc1[nH]c(-c2ccccc2Oc2ccccc2)c2cc(C(=O)O)[nH]c(=O)c12` [Example 12, 3-methyl-4-oxo-1-(2-phenoxyphenyl)-4,5-dihydro-2H-pyrrolo[3,4-c]pyridine-6-carboxylic acid], the Ki at BRD4 (BDI_K57-E168) was 82.6 nM; on BRD4 (BDII_E352-M457) it was 546 nM.

On to `Cc1[nH]c(-c2ccccc2Oc2ccccc2)c2cc[nH]c(=O)c12` [Example 14, 3-methyl-1-(2-phenoxyphenyl)-2H-pyrrolo[3,4-c]pyridin-4(5H)-one], for which the Ki on BRD4 (BDI_K57-E168) was 31.4 nM; at BRD4 (BDII_E352-M457), 67.6 nM.

Consider `Cc1[nH]c(-c2ccccc2Oc2ccc(F)cc2F)c2cc(C(=O)O)[nH]c(=O)c12` [Example 22, 1-[2-(2,4-difluorophenoxy)phenyl]-3-methyl-4-oxo-4,5-dihydro-2H-pyrrolo[3,4-c]pyridine-6-carboxylic acid], for which the Ki on BRD4 (BDI_K57-E168) was 225 nM; on BRD4 (BDII_E352-M457), 2790 nM.

For the molecule `CCOC(=O)c1cc2c(-c3cc(Cl)ccc3Oc3ccc(F)cc3F)[nH]c(C)c2c(=O)[nH]1` [Example 24, ethyl 1-[5-chloro-2-(2,4-difluorophenoxy)phenyl]-3-methyl-4-oxo-4,5-dihydro-2H-pyrrolo[3,4-c]pyridine-6-carboxylate], the results for the inhibitory constant (Ki) at BRD4 (BDI_K57-E168) and on BRD4 (BDII_E352-M457) were 92.2 nM and 2750 nM, respectively.

For `CCOC(=O)c1cc2c(-c3cc([N+](=O)[O-])ccc3Oc3ccc(F)cc3F)[nH]c(C)c2c(=O)[nH]1` [Example 33, ethyl 1-[2-(2,4-difluorophenoxy)-5-nitrophenyl]-3-methyl-4-oxo-4,5-dihydro-2H-pyrrolo[3,4-c]pyridine-6-carboxylate], the Ki was 499 nM at BRD4 (BDI_K57-E168) and 759 nM on BRD4 (BDII_E352-M457).

Consider `Cc1[nH]c(-c2cc(S(C)(=O)=O)ccc2Oc2ccc(F)cc2F)c2cc(C(=O)O)[nH]c(=O)c12` [Example 40, 1-[2-(2,4-difluorophenoxy)-5-(methylsulfonyl)phenyl]-3-methyl-4-oxo-4,5-dihydro-2H-pyrrolo[3,4-c]pyridine-6-carboxylic acid], for which the inhibition constant Ki at BRD4 (BDI_K57-E168) was 358 nM; at BRD4 (BDII_E352-M457) it was 1720 nM.

Take `Cc1[nH]c(-c2ccccc2Oc2ccccc2)c2cc(C(=O)N(C)C)[nH]c(=O)c12` [Example 41, N,N,3-trimethyl-4-oxo-1-(2-phenoxyphenyl)-4,5-dihydro-2H-pyrrolo[3,4-c]pyridine-6-carboxamide]: the Ki at BRD4 (BDI_K57-E168) was 141 nM; on BRD4 (BDII_E352-M457), 944 nM.

For `Cc1[nH]c(-c2ccccc2Oc2ccccc2)c2cc(-c3nc(-c4ccccc4)no3)[nH]c(=O)c12` [Example 46, 3-methyl-1-(2-phenoxyphenyl)-6-(3-phenyl-1,2,4-oxadiazol-5-yl)-2H-pyrrolo[3,4-c]pyridin-4(5H)-one], the Ki is 1250 nM on BRD4 (BDI_K57-E168) and 1220 nM on BRD4 (BDII_E352-M457).

Consider `CCCc1noc(-c2cc3c(-c4ccccc4Oc4ccccc4)[nH]c(C)c3c(=O)[nH]2)n1` [Example 47, 3-methyl-1-(2-phenoxyphenyl)-6-(3-propyl-1,2,4-oxadiazol-5-yl)-2H-pyrrolo[3,4-c]pyridin-4(5H)-one], for which the values for the Ki on BRD4 (BDI_K57-E168) and on BRD4 (BDII_E352-M457) were 519 nM and 2520 nM, respectively.

As for `Cc1[nH]c(-c2ccccc2Oc2ccccc2)c2cc(-c3nc(-c4ccc(N(C)C)cc4)no3)[nH]c(=O)c12` [Example 62, 6-(3-(4-(dimethylamino)phenyl)-1,2,4-oxadiazol-5-yl)-3-methyl-1-(2-phenoxyphenyl)-2H-pyrrolo[3,4-c]pyridin-4(5H)-one], the Ki at BRD4 (BDI_K57-E168) was > 2380 nM; at BRD4 (BDII_E352-M457), > 4080 nM.

On to `Cc1[nH]c(-c2ccccc2Oc2ccccc2)c2cn[nH]c(=O)c12` [Example 72, 7-methyl-5-(2-phenoxyphenyl)-2,6-dihydro-1H-pyrrolo[3,4-d]pyridazin-1-one], for which the Ki at BRD4 (BDI_K57-E168) is 7.63 nM; at BRD4 (BDII_E352-M457), 25.8 nM.

Regarding `Cc1[nH]c(-c2cc(NS(C)(=O)=O)ccc2Oc2ccccc2)c2cn[nH]c(=O)c12` [Example 73, N-[3-(7-methyl-1-oxo-2,6-dihydro-1H-pyrrolo[3,4-d]pyridazin-5-yl)-4-phenoxyphenyl]methanesulfonamide], the Ki is 1.49 nM at BRD4 (BDI_K57-E168) and 8.5 nM on BRD4 (BDII_E352-M457).

Turning to `Cc1ccc(S(=O)(=O)Nc2ccccc2-c2[nH]c(C)c3c(=O)[nH]ncc23)cc1` [Example 77, 4-methyl-N-[2-(7-methyl-1-oxo-2,6-dihydro-1H-pyrrolo[3,4-d]pyridazin-5-yl)phenyl]benzenesulfonamide], the figures for the Ki on BRD4 (BDI_K57-E168) and at BRD4 (BDII_E352-M457) were > 13000 nM and > 22200 nM, respectively.

Regarding `Cc1[nH]c(-c2ccccc2Oc2ccccc2)c2nc(C(=O)O)[nH]c(=O)c12` [Example 86, 5-methyl-4-oxo-7-(2-phenoxyphenyl)-4,6-dihydro-3H-pyrrolo[3,4-d]pyrimidine-2-carboxylic acid], the Ki at BRD4 (BDI_K57-E168) was 1370 nM; at BRD4 (BDII_E352-M457), 12300 nM.

Regarding `Cc1[nH]c(-c2cc(N)ccc2Oc2ccccc2)c2nc[nH]c(=O)c12` [Example 90, 7-(5-amino-2-phenoxyphenyl)-5-methyl-3,6-dihydro-4H-pyrrolo[3,4-d]pyrimidin-4-one], the Ki is 108 nM on BRD4 (BDI_K57-E168) and 791 nM at BRD4 (BDII_E352-M457).

As to `Cc1[nH]c(-c2cc(NS(C)(=O)=O)ccc2Oc2ccccc2)c2nc[nH]c(=O)c12` [Example 91, N-[3-(5-methyl-4-oxo-4,6-dihydro-3H-pyrrolo[3,4-d]pyrimidin-7-yl)-4-phenoxyphenyl]methanesulfonamide], the Ki on BRD4 (BDI_K57-E168) was 22.6 nM; on BRD4 (BDII_E352-M457), 117 nM.

Turning to `Cc1[nH]c(-c2ccccc2Oc2ccccc2)c2c1C(=O)NCC2` [Example 92, 3-methyl-1-(2-phenoxyphenyl)-2,5,6,7-tetrahydro-4H-pyrrolo[3,4-c]pyridin-4-one], the Ki was 14.1 nM at BRD4 (BDI_K57-E168) and 47 nM on BRD4 (BDII_E352-M457).

With `Cc1[nH]c(-c2cc(NS(C)(=O)=O)ccc2Oc2ccc(F)cc2F)c2c1C(=O)NCC2` [Example 93, N-[4-(2,4-difluorophenoxy)-3-(3-methyl-4-oxo-4,5,6,7-tetrahydro-2H-pyrrolo[3,4-c]pyridin-1-yl)phenyl]methanesulfonamide], the Ki was 14 nM at BRD4 (BDI_K57-E168) and 138 nM at BRD4 (BDII_E352-M457).

Take `Cc1[nH]c(-c2cc(NS(C)(=O)=O)ccc2Oc2ccccc2)c2c1C(=O)NCC2` [Example 95, N-[3-(3-methyl-4-oxo-4,5,6,7-tetrahydro-2H-pyrrolo[3,4-c]pyridin-1-yl)-4-phenoxyphenyl]methanesulfonamide]: the Ki on BRD4 (BDI_K57-E168) was 3.67 nM; at BRD4 (BDII_E352-M457), 20.4 nM.

As for `Cc1[nH]c(-c2cc(S(C)(=O)=O)ccc2F)c2c1C(=O)NCC2` [Example 99, 1-[2-fluoro-5-(methylsulfonyl)phenyl]-3-methyl-2,5,6,7-tetrahydro-4H-pyrrolo[3,4-c]pyridin-4-one], the figures for the Ki on BRD4 (BDI_K57-E168) and on BRD4 (BDII_E352-M457) were 1620 nM and > 4440 nM, respectively.

`Cc1[nH]c(-c2ccccc2)c2c1C(=O)NCC2` [Example 100, 3-methyl-1-phenyl-2,5,6,7-tetrahydro-4H-pyrrolo[3,4-c]pyridin-4-one]: the Ki at BRD4 (BDI_K57-E168) is 2250 nM; at BRD4 (BDII_E352-M457), 2920 nM.

In the case of `Cc1[nH]c(-c2cc(CN3CCN(C)CC3)ccc2Oc2ccc(F)cc2F)c2c1C(=O)NCC2` [Example 102, 1-{2-(2,4-difluorophenoxy)-5-[(4-methylpiperazin-1-yl)methyl]phenyl}-3-methyl-2,5,6,7-tetrahydro-4H-pyrrolo[3,4-c]pyridin-4-one], the Ki at BRD4 (BDI_K57-E168) is 1560 nM; on BRD4 (BDII_E352-M457) it was 3120 nM.

The Ki is a dissociation constant, usually derived from enzyme kinetics or from competition with a known ligand.
